According to patent publication US20090022714A1, “Combination methods of inhibiting tumor growth with a vascular endothelial growth factor receptor antagonist” (ImClone Systems, Inc., priority 2001, published 2009):

Target: T1, KDR (VEGFR-2) (Homo sapiens, UniProt P35968)
T1 construct: the cDNA for KDR (VEGFR-2) extracellular domain is fused in-frame with the cDNA for human placental AP; made in house; host or cells: stably transfected NIH 3T3 cells, purified from supernatant on anti-AP antibody
Experiment: BIAcore analysis of p1C11 scFv, c-p1C11 and VEGF
Assay type: binding
Description: The binding kinetics of antibodies to KDR (VEGFR-2) were measured using BIAcore biosensor (Pharmacia Biosensor). […] Sensorgrams were obtained at each concentration and were evaluated using a program, BIA Evaluation 2.0, to determine the rate constants kon and koff. Kd was calculated as the ratio of rate constants koff/kon.

T1 sequence (P35968 20-764 limits assumed): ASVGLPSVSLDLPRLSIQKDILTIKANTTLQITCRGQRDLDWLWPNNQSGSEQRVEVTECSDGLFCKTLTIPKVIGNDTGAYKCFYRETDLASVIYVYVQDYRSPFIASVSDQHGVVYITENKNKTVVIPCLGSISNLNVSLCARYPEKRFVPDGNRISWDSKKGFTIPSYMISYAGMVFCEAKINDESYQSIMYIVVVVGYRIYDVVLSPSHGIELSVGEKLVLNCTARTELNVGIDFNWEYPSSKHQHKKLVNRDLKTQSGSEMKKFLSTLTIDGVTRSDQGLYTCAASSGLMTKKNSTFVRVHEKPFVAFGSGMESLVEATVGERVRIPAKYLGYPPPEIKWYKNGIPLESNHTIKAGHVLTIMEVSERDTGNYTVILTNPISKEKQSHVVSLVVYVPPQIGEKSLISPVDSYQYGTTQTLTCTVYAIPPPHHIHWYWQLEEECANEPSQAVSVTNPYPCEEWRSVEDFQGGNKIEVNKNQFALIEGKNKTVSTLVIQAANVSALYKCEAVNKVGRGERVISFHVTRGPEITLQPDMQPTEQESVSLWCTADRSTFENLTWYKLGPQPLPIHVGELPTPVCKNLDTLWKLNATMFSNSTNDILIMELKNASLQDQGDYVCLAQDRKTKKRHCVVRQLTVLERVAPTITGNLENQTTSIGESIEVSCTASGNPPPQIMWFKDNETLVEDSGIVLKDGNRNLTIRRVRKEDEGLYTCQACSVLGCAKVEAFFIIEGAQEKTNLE

With VEGF [reference compound] the koff was 1.81 10^−4 s^−1 and the kon was 1.87 10^5 M^−1s^−1.
